According to patent US10219513B2, “Safening 4-amino-3-chloro-6-(4-chloro-2-fluoro-3-methoxyphenyl)-5-fluoropyridine-2-carboxylic acid compositions in Brassica species and methods of use thereof” (Dow AgroSciences LLC, priority 2016, dated 2019):
Several values for one entry are separate records, joined by “and”; a condition that tells them apart may be missing. Equal entries are not always repeated.

How the values were obtained:
[1] = tested on: Brassica napus (winter oilseed rape, BRSNW); experiment: Greenhouse postemergence application, visual injury after 20-22 d, BRSNW
Description: (§1) Seeds of the desired test plant species were planted in Sun Gro MetroMix® 306 planting mixture, which typically has a pH of 6.0 to 6.8 and an organic matter content of about 30 percent, in plastic pots with a surface area of 103.2 square centimeters (cm^2). […] The plants were grown for 7-36 days (d) in a greenhouse with an approximate 14-hour (h) photoperiod which was maintained at about 23° C. during the day and 22° C. during the night. Nutrients and water were added on a regular basis and supplemental lighting was provided with overhead metal halide 1000-Watt lamps as necessary. The plants were employed for testing when they reached the second or third true leaf stage.
(§2) An aliquot of formulated benzyl 4-amino-3-chloro-6-(4-chloro-2-fluoro-3-methoxyphenyl)-5-fluoropyridine-2-carboxylate (florpyrauxifen-benzyl; 300 grams active ingredient per liter (g ai/L) suspension concentrate (SC)) was placed in a 25 mL glass vial and diluted in a volume of 1.25% (v/v) aqueous Agri-dex crop oil concentrated to obtain a stock solution. […] The concentrated stock solutions were diluted with an aqueous mixture of 1.25% v/v of aqueous Agri-dex crop oil concentrate to provide the appropriate application rates. Compound requirements are based upon a 12 milliliter (mL) application volume at a rate of 187 liters per hectare (L/ha). Stock solutions of the formulated materials were prepared following the same procedure. Spray solutions of the compound mixtures were prepared by adding the stock solutions to the appropriate amount of dilution solution to form a 12 mL spray solution. Formulated compounds were applied to the plant material with an overhead Mandel track sprayer equipped with 8002E nozzles calibrated to deliver 187 L/ha over an application area of 0.503 square meters (m^2) at a spray height of 18 inches (43 centimeters (cm)) above average plant canopy. Control plants were sprayed in the same manner with the solvent blank.
(§3) The treated plants and control plants were placed in a greenhouse as described above and watered by sub-irrigation to prevent wash-off of the test compounds. After 20-22 d, the condition of the test plants as compared with that of the control plants was determined visually and scored on a scale of 0 to 100 percent where 0 corresponds to no injury and 100 corresponds to complete kill. Colby's equation was used to determine the herbicidal effects expected from the mixtures.
(§4) Benzyl 4-amino-3-chloro-6-(4-chloro-2-fluoro-3-methoxyphenyl)-5-fluoropyridine-2-carboxylate (florpyrauxifen-benzyl, 300 g ai/L SC) was combined in two-, three-, and four-way mixtures with one or more of the following: clopyralid-olamine (as Lontrel™ 35A Herbicidal Concentrate), quinclorac (as Facet 75DF), isoxadifen-ethyl (100 g/L SC), cloquintocet-mexyl (120 g/L EC) or mefenpyr-diethyl (as mefenpyr-diethyl 15WP). The mixtures were applied to kale/Chinese kale (Brassica alboglabra, BRSAG), Juncea canola or brown mustard (Brassica juncea, BRSJU), rutabaga (Brassica napus var. napobrassica, BRSNA), all varieties of canola and oilseed rape (Brassica napus, BRSNN), Nexera™ canola (Brassica napus, BRSNN-NEX), winter oilseed rape (Brassica napus, BRSNW), Roundup Ready® canola (Brassica napus, RR-BRSNN), and turnip or Polish canola (Brassica rapa, BRSRR), and the phytotoxicity of the compositions was measured.
(§5) Colby's equation was used to determine the herbicidal effects expected from the mixtures evaluated in the described trials (Colby, S. R. Calculation of the synergistic and antagonistic response of herbicide combinations. Weeds 1967, 15, 20-22.).
(§6) The following equation was used to calculate the expected activity of mixtures containing two active ingredients, A and B: Expected=A+B−(A×B/100) • A=observed efficacy of active ingredient A at the same concentration as used in the mixture; • B=observed efficacy of active ingredient B at the same concentration as used in the mixture.

[2] = tested on: Brassica napus (all varieties of canola and oilseed rape, BRSNN); experiment: Greenhouse postemergence application, visual injury after 20-22 d, BRSNN
Description: as §1, §2, §3, §4, §5, §6

[3] = tested on: Brassica napus (Roundup Ready canola, RR-BRSNN); experiment: Greenhouse postemergence application, visual injury after 20-22 d, RR-BRSNN
Description: as §1, §2, §3, §4, §5, §6

[4] = tested on: Brassica juncea (Juncea canola or brown mustard, BRSJU); experiment: Greenhouse postemergence application, visual injury after 20-22 d, BRSJU
Description: as §1, §2, §3, §4, §5, §6

[5] = tested on: Brassica alboglabra (kale/Chinese kale, BRSAG); experiment: Greenhouse postemergence application, visual injury after 20-22 d, BRSAG
Description: as §1, §2, §3, §4, §5, §6

[6] = florpyrauxifen-benzyl 2.5 g ai/ha alone
[7] = florpyrauxifen-benzyl 5 g ai/ha alone
[8] = florpyrauxifen-benzyl 10 g ai/ha alone
[9] = florpyrauxifen-benzyl alone 2.5 g ai/ha
[10] = florpyrauxifen-benzyl alone 5 g ai/ha
[11] = florpyrauxifen-benzyl alone 10 g ai/ha
[12] = postemergence application, greenhouse, application rate (g ai/ha) varies

## COc1c(Cl)ccc(-c2nc(C(=O)OCc3ccccc3)c(Cl)c(N)c2F)c1F [Florpyrauxifen-benzyl, benzyl 4-amino-3-chloro-6-(4-chloro-2-fluoro-3-methoxyphenyl)-5-fluoropyridine-2-carboxylate]
[1]; BRSNW, 2.5 g ai/ha
  % Visual Injury Obs: 8%
[1]; BRSNW, 5 g ai/ha
  % Visual Injury Obs: 13%
[1]; BRSNW, 10 g ai/ha
  % Visual Injury Obs: 18%
[1]; BRSNW, florpyrauxifen-benzyl alone 2.5 g ai/ha
  Obs % visual injury: 8%
[1]; BRSNW, florpyrauxifen-benzyl alone 5 g ai/ha
  Obs % visual injury: 13%
[1]; BRSNW, florpyrauxifen-benzyl alone 10 g ai/ha
  Obs % visual injury: 18%
[1]; [6]
  % Visual Injury BRSNW Obs: 8%
  % Visual Injury Obs: 8%
[1]; [7]
  % Visual Injury BRSNW Obs: 13%
  % Visual Injury Obs: 13%
[1]; [8]
  % Visual Injury BRSNW Obs: 18%
  % Visual Injury Obs: 18%
[1]; [9]
  Obs % visual injury BRSNW: 8%
[1]; [10]
  Obs % visual injury BRSNW: 13%
[1]; [11]
  Obs % visual injury BRSNW: 18%
[1]; [12]
  % Visual Injury BRSNW Obs: 8% and 13% and 18%
[2]; BRSNN, 2.5 g ai/ha
  % Visual Injury Obs: 7%
[2]; BRSNN, 5 g ai/ha
  % Visual Injury Obs: 12%
[2]; BRSNN, 10 g ai/ha
  % Visual Injury Obs: 18%
[2]; BRSNN, florpyrauxifen-benzyl alone 2.5 g ai/ha
  Obs % visual injury: 7%
[2]; BRSNN, florpyrauxifen-benzyl alone 5 g ai/ha
  Obs % visual injury: 12%
[2]; BRSNN, florpyrauxifen-benzyl alone 10 g ai/ha
  Obs % visual injury: 18%
[2]; [6]
  % Visual Injury BRSNN Obs: 7%
  % Visual Injury Obs: 7%
[2]; [7]
  % Visual Injury BRSNN Obs: 12%
  % Visual Injury Obs: 12%
[2]; [8]
  % Visual Injury BRSNN Obs: 18%
  % Visual Injury Obs: 18%
[2]; [9]
  Obs % visual injury BRSNN: 7%
[2]; [10]
  Obs % visual injury BRSNN: 12%
[2]; [11]
  Obs % visual injury BRSNN: 18%
[3]; RR-BRSNN, 2.5 g ai/ha
  % Visual Injury Obs: 6%
[3]; RR-BRSNN, 5 g ai/ha
  % Visual Injury Obs: 9%
[3]; RR-BRSNN, 10 g ai/ha
  % Visual Injury Obs: 19%
[3]; RR-BRSNN, florpyrauxifen-benzyl alone 2.5 g ai/ha
  Obs % visual injury: 6%
[3]; RR-BRSNN, florpyrauxifen-benzyl alone 5 g ai/ha
  Obs % visual injury: 9%
[3]; RR-BRSNN, florpyrauxifen-benzyl alone 10 g ai/ha
  Obs % visual injury: 19%
[3]; [6]
  % Visual Injury Obs: 6%
  % Visual Injury RR-BRSNN Obs: 6%
[3]; [7]
  % Visual Injury Obs: 9%
  % Visual Injury RR-BRSNN Obs: 9%
[3]; [8]
  % Visual Injury Obs: 19%
  % Visual Injury RR-BRSNN Obs: 19%
[3]; [9]
  Obs % visual injury RR-BRSNN: 6%
[3]; [10]
  Obs % visual injury RR-BRSNN: 9%
[3]; [11]
  Obs % visual injury RR-BRSNN: 19%
[4]; BRSJU, 2.5 g ai/ha
  % Visual Injury Obs: 7%
[4]; BRSJU, 5 g ai/ha
  % Visual Injury Obs: 12%
[4]; BRSJU, 10 g ai/ha
  % Visual Injury Obs: 18%
[4]; BRSJU, florpyrauxifen-benzyl alone 2.5 g ai/ha
  Obs % visual injury: 7%
[4]; BRSJU, florpyrauxifen-benzyl alone 5 g ai/ha
  Obs % visual injury: 12%
[4]; BRSJU, florpyrauxifen-benzyl alone 10 g ai/ha
  Obs % visual injury: 18%
[4]; [6]
  % Visual Injury BRSJU Obs: 7%
  % Visual Injury Obs: 7%
[4]; [7]
  % Visual Injury BRSJU Obs: 12%
  % Visual Injury Obs: 12%
[4]; [8]
  % Visual Injury BRSJU Obs: 18%
  % Visual Injury Obs: 18%
[4]; [9]
  Obs % visual injury BRSJU: 7%
[4]; [10]
  Obs % visual injury BRSJU: 12%
[4]; [11]
  Obs % visual injury BRSJU: 18%
[5]; BRSAG, 2.5 g ai/ha
  % Visual Injury Obs: 5%
[5]; BRSAG, 5 g ai/ha
  % Visual Injury Obs: 3%
[5]; BRSAG, 10 g ai/ha
  % Visual Injury Obs: 7%
[5]; BRSAG, florpyrauxifen-benzyl alone 2.5 g ai/ha
  Obs % visual injury: 5%
[5]; BRSAG, florpyrauxifen-benzyl alone 5 g ai/ha
  Obs % visual injury: 3%
[5]; BRSAG, florpyrauxifen-benzyl alone 10 g ai/ha
  Obs % visual injury: 7%
[5]; [6]
  % Visual Injury BRSAG Obs: 5%
  % Visual Injury Obs: 5%
[5]; [7]
  % Visual Injury BRSAG Obs: 3%
  % Visual Injury Obs: 3%
[5]; [8]
  % Visual Injury BRSAG Obs: 7%
  % Visual Injury Obs: 7%
[5]; [9]
  Obs % visual injury BRSAG: 5%
[5]; [10]
  Obs % visual injury BRSAG: 3%
[5]; [11]
  Obs % visual injury BRSAG: 7%
[5]; [12]
  % Visual Injury BRSAG Obs: 3% and 7% and 5%
